Source: US8916551B2, “Heterocyclic compound and use thereof” (Takeda Pharmaceutical Company Limited, priority 2010, dated 2014)

These molecules were tested against T1, AMPA receptor (human GluR1 flip/stargazin expressed in CHO-K1 cells) (Homo sapiens, UniProt P42261) (assay: AMPA receptor function enhancing activity using calcium influx as index). Settings: test compound 30 μM with glutamic acid final 3 mM, change in fluorescence in 3 min, 100% = 3 mM glutamic acid + 300 μM cyclothiazide, 0% = 3 mM glutamic acid only.
T1 construct: expressed in transfected cells; host or cells: CHO-K1
Assay type: cell-based
From the text: Human GluR1 flip cDNA was amplified by PCR using forward primer […] (SEQ ID NO: 1) and reverse primer […] (SEQ ID NO: 2) artificially synthesized using human brain-derived cDNA (BD Bio science) as a template. The amplified product was digested with restriction enzymes EcoRI, NotI (TAKARA SHUZO CO. LTD.), and incorporated into the same site of pcDNA3.1(+) (Invitrogen) to construct pcDNA3.1(+)/human GluR1 flip gene. Human stargazin cDNA was amplified by PCR using forward primer […] (SEQ ID NO: 3) and reverse primer […] (SEQ ID NO: 4) artificially synthesized using human hippocampus cDNA as a template. The amplified product was digested with restriction enzymes XhoI, BamHI (TAKARA SHUZO CO. LTD.), and incorporated into the same site of pcDNA3.1(−) (Invitrogen) to construct pcDNA3.1 Zeo(−)/human stargazin gene.
CHO-K1 cells passaged in a culture medium (Ham's F12 medium (Invitrogen) added with 10% inactivated fetal bovine serum (Morgate) and penicillin, streptomycin (Invitrogen)) were detached with 0.05% trypsin, 0.53 mM EDTA (Invitrogen) diluted with D-PBS(−). The detached cells were suspended in a culture medium, and recovered by a centrifugation operation at 1,000 rpm. The recovered cells were suspended again in D-PBS(−), and added to a 0.4 cm electroporation cuvette (BioRad). pcDNA3.1(+)/human GluR1 flip gene (5 μg) and pcDNA3.1 Zeo(−)/human stargazin gene (15 μg) were added, and the mixture was introduced into CHO-K1 cells using Gene Pulser II (BioRad) under the conditions of 950 μFd, […]. The introduced cells were cultured overnight in a culture medium and, the next day, plated in a 96 well plate at 250 cells/well using a selection medium (culture medium added with Zeocin (Invitrogen) to 250 μg/mL). Clones showing drug resistance were selected, and GluR1 flip/stargazin expressing clones were selected by an assay method using calcium influx as an index as shown below.
CHO-K1/GluR1 flip/stargazin expressing cells were plated on a 96 well black transparent bottom plate (Costar) at 2×10^4 cells/well, and cultured in a 37° C., CO2 incubator (SANYO Electric Co., Ltd.) for 2 days. The medium in the cell plate was removed, and assay buffer A (D-MEM (Invitrogen), 0.1% BSA (Serogical Protein), 20 mM HEPES (Invitrogen)) was added at 50 μL/well. A calcium indicator (Calcium 4 Assay Kit, Invitrogen) added with 2.5 mM probenecid (Invitrogen) was added at 50 μL/well and the well was left standing in 37° C., CO2 incubator for 1 hr. The cell plate was set in CellLux (PerkinElmer), a mixture (50 μL) of 9 mM glutamic acid diluted with assay buffer B (HBSS (Invitrogen), 0.1% BSA, 20 mM HEPES) (final concentration 3 mM) and a test compound (test compound concentration 30 μM) was added, and the amount of change in fluorescence level in 3 min was measured. In the definition here, the amount of change in fluorescence level of well added with glutamic acid at final concentration 3 mM and 300 μM cyclothiazide (TOCRIS) is 100%, the amount of change in fluorescence level of well added only with glutamic acid at final concentration 3 mM is 0%, and the compound activity was calculated according to the following formula. activity(%)=(X−C)/(T−C)×100 T: amount of change in fluorescence level of well added with glutamic acid at final concentration 3 mM and 300 μM cyclothiazide C: amount of change in fluorescence level of well added only with glutamic acid at final concentration 3 mM X: amount of change in fluorescence level of well added with test compound

T1 sequence (P42261 19-906 isoform P42261-2 limits assumed): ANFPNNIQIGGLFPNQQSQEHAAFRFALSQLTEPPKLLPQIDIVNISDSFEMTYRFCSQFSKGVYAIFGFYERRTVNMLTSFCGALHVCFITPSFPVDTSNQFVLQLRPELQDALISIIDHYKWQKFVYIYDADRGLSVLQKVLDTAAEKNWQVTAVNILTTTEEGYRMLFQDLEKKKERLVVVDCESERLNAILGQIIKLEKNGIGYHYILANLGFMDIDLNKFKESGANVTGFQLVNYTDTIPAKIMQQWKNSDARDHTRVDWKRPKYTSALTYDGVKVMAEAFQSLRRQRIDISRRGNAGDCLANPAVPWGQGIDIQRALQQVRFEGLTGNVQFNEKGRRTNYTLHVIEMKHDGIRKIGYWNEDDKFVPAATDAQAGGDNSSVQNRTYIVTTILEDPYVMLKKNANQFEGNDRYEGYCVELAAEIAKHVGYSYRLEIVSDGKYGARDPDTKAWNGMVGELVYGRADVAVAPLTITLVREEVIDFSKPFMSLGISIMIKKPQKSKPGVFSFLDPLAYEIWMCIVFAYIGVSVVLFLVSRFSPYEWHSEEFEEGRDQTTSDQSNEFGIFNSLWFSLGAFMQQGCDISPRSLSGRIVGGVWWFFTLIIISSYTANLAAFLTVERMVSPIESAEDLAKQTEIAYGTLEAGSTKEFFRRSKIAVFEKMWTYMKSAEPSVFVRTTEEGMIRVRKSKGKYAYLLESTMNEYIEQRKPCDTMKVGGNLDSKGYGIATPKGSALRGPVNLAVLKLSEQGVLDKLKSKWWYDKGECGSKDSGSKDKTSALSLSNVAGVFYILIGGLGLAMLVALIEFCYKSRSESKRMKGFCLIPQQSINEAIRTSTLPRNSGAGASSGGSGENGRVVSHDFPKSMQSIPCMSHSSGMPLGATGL
T1 sequence (Q9Y698 whole entry partner): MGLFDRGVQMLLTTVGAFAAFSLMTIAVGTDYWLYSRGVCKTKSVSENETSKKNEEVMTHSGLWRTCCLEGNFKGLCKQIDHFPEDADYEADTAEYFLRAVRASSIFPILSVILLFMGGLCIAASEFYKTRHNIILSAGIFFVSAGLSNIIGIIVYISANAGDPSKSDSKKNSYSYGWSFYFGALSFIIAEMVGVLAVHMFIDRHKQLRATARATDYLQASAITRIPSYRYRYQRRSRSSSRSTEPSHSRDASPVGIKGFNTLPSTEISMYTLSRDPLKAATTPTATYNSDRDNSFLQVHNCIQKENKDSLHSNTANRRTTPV

First: CC1CC(c2ccc(Oc3ccccc3)cc2)C2=NS(=O)(=O)CCN2C1 (stereo not shown) [Example 99, 7-methyl-9-(4-phenoxyphenyl)-3,4,6,7,8,9-hexahydropyrido[2,1-c][1,2,4]thiadiazine 2,2-dioxide]
Second: Cc1ccccc1Oc1ccc(C2CCCN3CCS(=O)(=O)N=C23)cc1 (stereo not shown) [Example 116, 9-[4-(2-methylphenoxy)phenyl]-3,4,6,7,8,9-hexahydropyrido[2,1-c][1,2,4]thiadiazine 2,2-dioxide]
The “activity (%)” value of the first is higher: 73% for the first, 69% for the second.

Compared with `Cc1cc(C2=CC=CN3CCS(=O)(=O)N=C23)ccc1-c1ccccc1` [Example 101, 9-(2-methylbiphenyl-4-yl)-3,4-dihydropyrido[2,1-c][1,2,4]thiadiazine 2,2-dioxide], `Cc1ccccc1Oc1ccc(C2=CC=CN3CCS(=O)(=O)N=C23)cc1` [Example 115, 9-[4-(2-methylphenoxy)phenyl]-3,4-dihydropyrido[2,1-c][1,2,4]thiadiazine 2,2-dioxide] is lower in “activity (%)” value: 84% for the first, 80% for the second.

Compared with `Cc1cc(C2CCCN3CCS(=O)(=O)N=C23)ccc1-c1ccccc1` (stereo not shown) [Example 102, 9-(2-methylbiphenyl-4-yl)-3,4,6,7,8,9-hexahydropyrido[2,1-c][1,2,4]thiadiazine 2,2-dioxide], `COc1cccc(-c2ccc(C3CCCN4CCS(=O)(=O)N=C34)cc2)c1` (stereo not shown) [Example 106, 9-(3′-methoxybiphenyl-4-yl)-3,4,6,7,8,9-hexahydropyrido[2,1-c][1,2,4]thiadiazine 2,2-dioxide] is higher in “activity (%)” value: 71% for the first, 98% for the second.

Going from `Cc1cc(C2CCCN3CCS(=O)(=O)N=C23)ccc1-c1ccccc1` (stereo not shown) [Example 103, 9-(2-methylbiphenyl-4-yl)-3,4,6,7,8,9-hexahydropyrido[2,1-c][1,2,4]thiadiazine 2,2-dioxide] to `Cc1ccc(-c2ccc(C3CCCN4CCS(=O)(=O)N=C34)cc2)cc1` (stereo not shown) [Example 105, 9-(4′-methylbiphenyl-4-yl)-3,4,6,7,8,9-hexahydropyrido[2,1-c][1,2,4]thiadiazine 2,2-dioxide], the “activity (%)” value rises from 81% to 87%.

Going from `Cc1ccc(Oc2ccc(C3CCCN4CCS(=O)(=O)N=C34)cc2)cc1` (stereo not shown) [Example 108, 9-[4-(4-methylphenoxy)phenyl]-3,4,6,7,8,9-hexahydropyrido[2,1-c][1,2,4]thiadiazine 2,2-dioxide] to `Cc1cccc(Oc2ccc(C3CCCN4CCS(=O)(=O)N=C34)cc2)c1` (stereo not shown) [Example 118, 9-[4-(3-methylphenoxy)phenyl]-3,4,6,7,8,9-hexahydropyrido[2,1-c][1,2,4]thiadiazine 2,2-dioxide], the “activity (%)” value rises from 68% to 79%.

First: Cc1ccc(Oc2ccc(C3CCCN4CCS(=O)(=O)N=C34)cc2)cc1 (stereo not shown) [Example 109, 9-[4-(4-methylphenoxy)phenyl]-3,4,6,7,8,9-hexahydropyrido[2,1-c][1,2,4]thiadiazine 2,2-dioxide]
Second: Cc1cccc(Oc2ccc(C3CCCN4CCS(=O)(=O)N=C34)cc2)c1 (stereo not shown) [Example 119, 9-[4-(3-methylphenoxy)phenyl]-3,4,6,7,8,9-hexahydropyrido[2,1-c][1,2,4]thiadiazine 2,2-dioxide]
The “activity (%)” value of the first is lower: 88% for the first, 92% for the second.

Going from `Cc1cc(Oc2ccc(C3=CC=CN4CCS(=O)(=O)N=C34)cc2)ccc1F` [Example 111, 9-[4-(4-fluoro-3-methylphenoxy)phenyl]-3,4-dihydropyrido[2,1-c][1,2,4]thiadiazine 2,2-dioxide] to `Cc1ccc(Oc2ccc(C3=CC=CN4CCS(=O)(=O)N=C34)cc2)cc1C` [Example 134, 9-[4-(3,4-dimethylphenoxy)phenyl]-3,4-dihydropyrido[2,1-c][1,2,4]thiadiazine 2,2-dioxide], the “activity (%)” value rises from 58% to 77%.

Going from `Cc1cc(Oc2ccc(C3CCCN4CCS(=O)(=O)N=C34)cc2)ccc1F` (stereo not shown) [Example 112, 9-[4-(4-fluoro-3-methylphenoxy)phenyl]-3,4,6,7,8,9-hexahydropyrido[2,1-c][1,2,4]thiadiazine 2,2-dioxide] to `Cc1ccc(Oc2ccc(C3CCCN4CCS(=O)(=O)N=C34)cc2)cc1C` (stereo not shown) [Example 135, 9-[4-(3,4-dimethylphenoxy)phenyl]-3,4,6,7,8,9-hexahydropyrido[2,1-c][1,2,4]thiadiazine 2,2-dioxide], the “activity (%)” value falls from 79% to 59%.

Going from `Cc1cc(Oc2ccc(C3CCCN4CCS(=O)(=O)N=C34)cc2)ccc1F` (stereo not shown) [Example 113, 9-[4-(4-fluoro-3-methylphenoxy)phenyl]-3,4,6,7,8,9-hexahydropyrido[2,1-c][1,2,4]thiadiazine 2,2-dioxide] to `CCc1cccc(Oc2ccc(C3CCCN4CCS(=O)(=O)N=C34)cc2)c1` (stereo not shown) [Example 131, 9-[4-(3-ethylphenoxy)phenyl]-3,4,6,7,8,9-hexahydropyrido[2,1-c][1,2,4]thiadiazine 2,2-dioxide], the “activity (%)” value falls from 86% to 58%.

Going from `Cc1cccc(Oc2ccc(C3=CC=CN4CCS(=O)(=O)N=C34)cc2)c1` [Example 117, 9-[4-(3-methylphenoxy)phenyl]-3,4-dihydropyrido[2,1-c][1,2,4]thiadiazine 2,2-dioxide] to `CCc1cccc(Oc2ccc(C3=CC=CN4CCS(=O)(=O)N=C34)cc2)c1` [Example 130, 9-[4-(3-ethylphenoxy)phenyl]-3,4-dihydropyrido[2,1-c][1,2,4]thiadiazine 2,2-dioxide], the “activity (%)” value falls from 90% to 69%.

First: Cc1cc(C(F)(F)F)ccc1Oc1ccc(C2=CC=CN3CCS(=O)(=O)N=C23)cc1 [Example 121, 9-{4-[2-methyl-4-(trifluoromethyl)phenoxy]phenyl}-3,4-dihydropyrido[2,1-c][1,2,4]thiadiazine 2,2-dioxide]
Second: Cc1cc(C(F)(F)F)ccc1Oc1ccc(C2CCCN3CCS(=O)(=O)N=C23)cc1 (stereo not shown) [Example 122, 9-{4-[2-methyl-4-(trifluoromethyl)phenoxy]phenyl}-3,4,6,7,8,9-hexahydropyrido[2,1-c][1,2,4]thiadiazine 2,2-dioxide]
The “activity (%)” value of the first is higher: 71% for the first, 58% for the second.

First: Cc1cc(C(F)(F)F)ccc1Oc1ccc(C2CCCN3CCS(=O)(=O)N=C23)cc1 (stereo not shown) [Example 123, 9-{4-[2-methyl-4-(trifluoromethyl)phenoxy]phenyl}-3,4,6,7,8,9-hexahydropyrido[2,1-c][1,2,4]thiadiazine 2,2-dioxide]
Second: CCc1cccc(Oc2ccc(C3CCCN4CCS(=O)(=O)N=C34)cc2)c1 (stereo not shown) [Example 132, 9-[4-(3-ethylphenoxy)phenyl]-3,4,6,7,8,9-hexahydropyrido[2,1-c][1,2,4]thiadiazine 2,2-dioxide]
The “activity (%)” value of the first is lower: 57% for the first, 75% for the second.

Going from `COc1ccc2cc(C3=CC=CN4CCS(=O)(=O)N=C34)ccc2c1` [Example 126, 9-(6-methoxynaphthalen-2-yl)-3,4-dihydropyrido[2,1-c][1,2,4]thiadiazine 2,2-dioxide] to `COc1ccc2cc(C3CCCN4CCS(=O)(=O)N=C34)ccc2c1` (stereo not shown) [Example 127, 9-(6-methoxynaphthalen-2-yl)-3,4,6,7,8,9-hexahydropyrido[2,1-c][1,2,4]thiadiazine 2,2-dioxide], the “activity (%)” value rises from 72% to 79%.

`COc1ccc2cc(C3CCCN4CCS(=O)(=O)N=C34)ccc2c1` (stereo not shown) [Example 128, 9-(6-methoxynaphthalen-2-yl)-3,4,6,7,8,9-hexahydropyrido[2,1-c][1,2,4]thiadiazine 2,2-dioxide] was tested, and the “activity (%)” value was 98%.
In the case of `COc1ccc2cc(C3CCCN4CCS(=O)(=O)N=C34)ccc2c1` (stereo not shown) [Example 129, 9-(6-methoxynaphthalen-2-yl)-3,4,6,7,8,9-hexahydropyrido[2,1-c][1,2,4]thiadiazine 2,2-dioxide], the “activity (%)” value is reported as 100%.
